One test has as its system human Oct4 promoter. As to the kind of experiment: Oct4-luc luciferase reporter assay (stably transfected CV1 cells). Format: cell-based. As to conditions: for induction of Oct4-luc, comparison with known reprogramming enhancers (in words): OAC1 1 μM, BIO 2 μM, BIX 2 μM, AzaC 2 μM, Vc 25 μg/ml, Am580 10 nM, tranylcypromine 5 μM, VPA 0.5 mM, two days; for fold induction at 1 µM: compound at 1 μM, Oct4-luc cells, triplicates. The text has this:
A high-throughput screening scheme was designed to identify Oct4 promoter-activating compounds using a luciferase reporter under the control of the human Oct4 promoter (Oct4-luc). […] A stable cell line (Oct4-luc) that expresses luciferase reporter driven by the exogenous Oct4 promoter was established using hygromycin-resistance as a selection marker. These Oct4-luc cells were used for high-throughput screening of a chemical library of 80,000 compounds. The luciferase reporter activity was measured 24 hr after compound treatment. Solvent treatment was included as a negative control.
(§1) Then the promoter sequences were cloned into pGL4.4-luc-Hyg vector (Promega) to get Oct4-luc or Nanog-luc construct and the fidelity of the Oct4 and Nanog promoter DNA sequences was confirmed by bi-directional sequencing. CV 1 cells were transfected with the Oct4-luc or Nanog-luc constructs and the stably-transfected cells were selected by hygromycine resistance.
Compound Screening: The Oct4-luc cells were seeded at 1.75×10^4 cells per well density into 96-well plates. Compounds were added to cells one day after cell seeding at the concentration of 10 μM for 24 hr in the High-Throughput Screening core facility at City of Hope. Compounds that induced luciferase activity 3-fold or more were selected for further validation in both Oct4-luc and Nanog-luc cells.
(§2) Luciferase Reporter Assays: The Oct4-luc or Nanog-luc cells were treated with compound OAC 1 or its structural analogs at 1 μM concentration or at indicated concentrations in triplicates. Other compounds used include 2 μM BIO, 2 μM BIX, 2 μM
(§3) AzaC, 25 μg/ml Vc, 10 nM Am580, 5 μM tranylcypromine, and 0.5 mM VPA. Luciferase reporter assays were performed as described (51) 24 hr after compound treatment or at indicated time points. For Topflash reporter assays, 0.2 μg β-catenin-responsive Topflash reporter gene plasmid was introduced into CV1 cells using trasfection (Bio-Rad). Compounds were added 6 hr after transfection. Luciferase activity was measured 48 hr after compound treatment using the Glo Luciferase Assay System (Promega).
For orientation: Reporter assays use an easily measured gene product as a stand-in for the process of interest.

Test [1] concerns β-catenin-responsive reporter gene Topflash. In words: Topflash luciferase reporter assay in CV1 cells (Wnt signaling). Format: cell-based. As to conditions: 1 μM OAC1 or 2 μM BIO, 48 hr. How it is done: Whether OAC1 regulates major signaling pathways that are critical for embryonic stem cell pluripotency was investigated. […] CV1 cells were transfected with the β-catenin-responsive reporter gene Topflash, and the transfected cells were treated with vehicle control or OAC1 (FIG. 6C). The glycogen synthase kinase 3β (GSK3β) inhibitor BIO was included as a positive control (42).
as §3

A further test has as its system human Nanog promoter. As to the kind of experiment: Nanog-luc luciferase reporter assay (stably transfected CV1 cells). As to conditions: for induction of Nanog-luc, comparison with known reprogramming enhancers (in words): OAC1 1 μM, BIO 2 μM, BIX 2 μM, AzaC 2 μM, Vc 25 μg/ml, Am580 10 nM, tranylcypromine 5 μM, VPA 0.5 mM, two days. Format: cell-based. As to the method:
Oct4, Sox2, and Nanog form a positive regulatory loop to regulate the expression of each other, and Nanog is considered a downstream target gene of Oct4 and Sox2 (37). Therefore, activation of Nanog promoter was used as a validation assay for the identified compounds. Specifically, the Oct4 promoter-activating compounds were tested to ascertain whether they activate a human
Nanog promoter-driven luciferase reporter gene using in triplicate luciferase reporter assays.
as §1, §2, §3

Test [2] deals with mouse embryonic fibroblasts (MEFs). In words: iPSC derivation from 4F (OSKM)-transduced MEFs in mouse ESC media. Format: cell-based. As to conditions: 4F+OAC. As to the method: The generation of iPSCs is a gradual process with relatively low efficiency. Since Oct4 is central to the reprogramming process (35, 36, 38), it was hypothesized that compounds that activate Oct4 transcription may facilitate iPSC generation by enhancing reprogramming efficiency. Reprogramming of mouse embryonic fibroblasts (MEFs) was performed with the 4F reprogramming quartet Oct4, Sox2, Klf4, and c-Myc, along with solvent control, OAC1 or its structural analogs OAC2 and OAC3. The same number of starting MEFs and the same viral stocks were used for each treatment. Two days after viral transduction, the 4F-transduced cells were seeded onto feeder cells in mouse ESC culture media, and this day was designated as day 0 (FIG. 2D). Compound treatment started on day 0 and lasted for 7 days. By counting the number of clones with ESC-like morphology at day 18, both OAC1 and its analogs OAC2 and OAC3 enhanced the 4F-induced reprogramming efficiency considerably. The number of colonies with ESC-like morphology (FIG. 2E) increased 2-fold or more in 4F plus OAC (4F+OAC) treatment, compared to the 4F treatment alone (FIG. 2F, Table 3).
iPSC Derivation in Mouse ESC Media: OG2/R26MEFs were seeded onto […] at the density of 4×10^4 cells per well in DMEM medium with 10% FBS, 0.1 mM non-essential amino acids (NEAA), and 0.1 mM L-glutamine, 24 hr before transduction. Freshly concentrated viruses of the four factors, Oct4, Sox2, c-Myc, and Klf4, were added to the cells. Two days after viral infection, the viral-transduced OG2/R26MEFs were split into new 6-well plates with irradiated MEF feeder cells and cultured in mouse ESC culture medium containing 15% ESC qualified FBS, 2 mM L-glutamine, 0.1 mM 2-mercaptoethanol, 0.1 mM NEAA, 1 mM sodium pyruvate and 1000 U/ml of leukemia inhibitory factor (LIF), and this day was defined as day 0. 1 μM of each compound (OAC1, OAC2, and OAC3) was added to the 4F-transduced cells at day 0 and treatment was continued for 1 week. When iPSC colonies emerged, these colonies were picked for expansion on irradiated MEF feeders in mouse ESC medium.

In test [3] the test system is human fibroblast cells (IMR90). In words: human iPSC derivation from 4F (OSKM)-transduced IMR90 fibroblasts. Format: cell-based. As to the method:
It has been shown that compound OAC1 (Oct4-activating compound I) and two of its structural analogs OAC2 and OAC3 can enhance reprogramming efficiency, when added to the reprogramming mixture along with the four transcription factors, Oct4, Sox2, Klf4, and c-Myc (OSKM), in mouse system. The OAC compounds were tested to determine if they can enhance reprogramming efficiency in human system. The reprogramming process was performed as described in the diagram (FIG. 14a). Briefly, human fibroblast cells (IMR90) were induced to reprogram into induced pluripotent stem cells (iPSCs) using the four reprogramming factors (4F), OSKM. The day when the cells were transduced with the four reprogramming factors was referred to as day 0. Cells were cultured in IMR90 media for six days. On day 6, the transduced cells were split and seeded onto feeders. On day 7, IMR90 culture media was changed to hESC culture media and started compound treatment. Compound treatment was lasted for one week. Cells were monitored for the appearance of human embryonic stem cell (ESC)-like colonies. On day 9, several small human ESC-like colonies appeared in both 4F+OAC1 and 4F+OAC2-treated cells, however, human ESC-like colonies were not observed in 4F+vehicle (4F)-treated cells until day 11. To determine the effect of OAC on the efficiency of human iPSC derivation, the number of human ESC-like colonies were counted under all three conditions at day 18. Both OAC 1 and its structural analog OAC2 increased the number of human ESC-like colonies more than two-fold (FIG. 14b, c). The human ESC-like colonies were picked from either 4F or 4F+OAC-treated cells and expanded under human ESC culture conditions. These cells were able to expand and stably produce human iPSC clones with characteristic human ESC-like morphology (FIG. 14d).

For test [4] the following is noted: day 8 post-infection of reprogramming factors; cited from earlier work.
Another test relates to MEFs. As to conditions: OSKM, seeding 2.7 × 10^5, day 8, reference (2) Huangfu 2008; cited from earlier work.

Where two headings read alike, the source gives them in different places. Where only a bound is given, the exact number is not on record here.

As to `O=C1Nc2cc(Br)ccc2/C1=C1/Nc2ccccc2/C1=N\O` [BIO, reference compound], the “induction of Oct4-luc, comparison with known reprogramming enhancers (in words)” value with human Oct4 promoter is on record as “lower level induction”. For the same molecule, in test [1], the “effect on Topflash reporter activity” value is “activated the Topflash reporter potently”. The “induction of Nanog-luc, comparison with known reprogramming enhancers (in words)” value in the test with human Nanog promoter was “lower level induction”.
As to `O=C(Nc1ccc2[nH]ccc2c1)c1ccccc1` [OAC2, N-(1H-indol-5-yl)benzamide], the fold induction at 1 µM is no less than 1.8 in the test on human Oct4 promoter (Homo sapiens, CV-1, 24 h, read-out: Oct4-luc Activity); 3.6 in the test on human Oct4 promoter (read-out: Oct4-luc fold Induction); 3.9 in the test with human Nanog promoter (Chlorocebus aethiops, CV-1, compound at 1 μM, Nanog-luc cells, triplicates). In addition, in test [2], the “advance of the appearance of putative iPSC colonies compared to 4F only reprogramming” value is “about three to four”. Besides, the “day at which human ESC-like colonies appeared” value in test [3] (IMR90, 4F+compound, day 0 = transduction, 4F+vehicle day 11) is 9 days. In test [3] (IMR90, day 18, versus 4F), the “increase in the number of human ESC-like colonies” value is listed as “more than two”.
With `CC(/C=C/C(=O)NO)=C\[C@@H](C)C(=O)c1ccc(N(C)C)cc1` [TSA], the “increase in reprogramming efficiency in iSF1 media” value in test [4] is 2 fold.
On to `CCCC(CCC)C(=O)O` [VPA, valproic acid], for which the “induction of Oct4-luc, comparison with known reprogramming enhancers (in words)” value in the test with human Oct4 promoter is recorded as “no significant effect”. Besides, the “increase in reprogramming efficiency in iSF1 media” value in test [4] was 2 fold. Moreover, the “induction of Nanog-luc, comparison with known reprogramming enhancers (in words)” value in the test on human Nanog promoter was “no significant effect”. Moreover, in the test with MEFs, the Colony numbers is reported as 241 and the Reprogramming efficiency is 0.089%.

(Values after US8962322B2, “Enhancers of induced pluripotent stem cell reprogramming” (City of Hope, priority 2012, dated 2015).)
